Results: patent publication US20240109917A1 (ACTELION PHARMACEUTICALS LTD, priority 2020, published 2024)

How the values were obtained:
[1] = molecular target: His6-TEV-PDGFRβ (557-1016) (Homo sapiens (Human), UniProt P09619); assay: PDGFRβ HTRF Assay; format: biochemical; conditions: read-out: PDGFR HTRF IC50
Method: Instrumentation: a. Compound liquid handling: LabCyte Echo; b. Reagent liquid handling: Thermo Scientific Multidrop Combi; c. BMG PHERAStar multilabel plate reader.
Protein Reagent: His6-TEV-PDGFRβ Protein Prep prepared at Accelagen.
(§1) II. Methods and Procedures
Assay buffer stock solution, contains 50 mM Hepes, 10 mM MgCl2, 1 mM EGTA, and 0.01% Brij-35, 0.01% ovalbumin, 2 mM DTT at pH 7.5, in molecular biology grade water. Store at room temperature.
DTT, 2 M in molecular biology grade water, store at −20° C. in aliquots.
Ovalbumin, 10% or 100 mg/mL, prepare fresh on experimental day.
PDGFRβ, 116 μM (PDGFRb_08 Prep 02), produced at Accelagen. Store at −80° C. in aliquots.
TK-biotin peptide, […] in molecular biology grade water, store at −20° C. in aliquots.
ATP, 100 mM in molecular biology grade water, store at −20° C. in aliquots.
HTRF KinEASE-TK kit: Allow the contents of the Cisbio kit to warm up to room temperature before use. This kit contains HTRF detection buffer, TK-Antibody labeled with Eu^3+-cryptate, TK-substrate biotin and Streptavidin-XL665.
TK Substrate-Biotin, reconstitute 500 μg lyopholized with 574 μL molecular biology grade water to prepare a 500 μM stock; After use, aliquot the rest and store at −20° C.
TK Antibody-Cryptate, reconstitute lyophilized with 1 mL of molecular biology grade water (100× solution) then add 99 mL detection buffer to prepare a ready to use TK-antibody-cryptate solution; the concentration of the TK-antibody-cryptate reagent is not known. After use, aliquot the rest and store at −20° C.
Streptavidin-XL665, reconstitute 3 mg lyophilized with 3 mL molecular biology grade water to prepare a 1 mg/mL or 16.67 μM stock; MW=60 kDa; After use, aliquot the rest and store at −20° C.
(§2) Freshly Prepared Solutions:
Assay buffer. Dilute 5× Kinase buffer 5-fold with molecular biology grade water and add DTT to 2 mM and ovalbumin to 0.1 mg/mL (or 0.01%).
2× protein solution. Make a working solution of […] PDGFRβ in assay buffer. Keep on ice until use to maintain enzyme stability.
2× substrate solution. Make a working solution of 1.6 mM ATP and 1 μM TK-substrate biotin peptide in assay buffer.
3× quench/detection solution. Make a working solution of 0.1875 μM SA-XL665 and the TK-antibody cryptate diluted by 12 of total quench/detection volume in assay buffer.
Keep final streptavidin/biotin ratio at 1 to 8.
Example of 3× quench/detection solution preparation: 8 mL total volume.
TK antibody-cryptate in detection buffer—4000 μL
The kinase reaction is stopped by the addition of the detection reagents which contain EDTA (detection step).
Assay in white ProxiPlate 384-well
Step 1. Dispensing inhibitors/DMSO and low control: Using the ECHO 555 acoustic dispenser, spot desired compound serial dilutions in DMSO, NEAT DMSO to represent the uninhibited enzyme control, and 10 μM final [imatinib] to the represent the 100% inhibited enzyme control
Step 2. PDGFRβ E+I pre-incubation: Add 2 μL 2× protein solution to columns 1-24 using the Multidrop Combi. Centrifuge at 1000 rpm for 1 min. Incubate 30 min at RT
Step 2. Enzymatic reaction: Add 2 μL substrate solution to columns 1-24 to initiate the reaction using the Multidrop Combi; cover/seal the assay plate to reduce evaporation. Centrifuge at 1000 rpm for 1 min. Incubate at room temperature for 3 hours.
Step 3. Quench/Detection: Add 2 μl 3× quench/detection solution to columns 1-24 using the Multidrop Combi; cover/seal the plate. Centrifuge 1 min 1000 rpm. Incubate at RT for 60 min. Read the plate in PHERAstar (or similar instrument) on HTRF setting at excitation 337 nm—dual emission—665/620 nm ratio.
(§3) III. Calculations and Formulas
HTRF ratio values calculated by the instrument (Ratio is acceptor counts/donor counts*10,000) is exported from the plate reader and used in data analysis. […] Assay statistics can include Robust Z′ and Signal to Background.
% Inhibition Calculation: Percent inhibition will be calculated for sample wells based on the equation: […]

[2] = molecular target: PDGFRβ (Rattus norvegicus (Rat), UniProt Q05030); assay: PDGFRβ Cellular Assay (PDGFRb P-Y751 HTRF in A10 cells stimulated with PDGF-BB); format: cell-based; conditions: PDGFR Cellular IC50
Method: as §1
Cell Culture and Preparation: Cells are cultured according to ATCC procedure (5) with the addition of the antibiotic penicillin-streptomycin. If working from frozen, cells should be thawed according to ATCC procedure. Depending on the cell density of frozen vial, cells will need time to recover from thaw. An 80% confluent T75 flask should be enough for one 384 well plate.
Stock Solutions: Rat PDGFBB. A 100 ug/mL stock is prepared by reconstituting 50 ug in 500 uL of 4 mM HCl and 0.1% BSA. It can be stored for a month at 4° C., or aliquoted out and frozen in the −20/−80° C. to avoid multiple free-thaw cycles.
as §2
1× Cisbio cell lysis buffer. The cell lysis buffer is diluted 4-fold with molecular grade water. The blocking agent is then diluted 25-fold in the diluted lysis buffer.
Antibody solutions. Equal amounts d2 and cryptate antibody are diluted 20-fold in detection buffer.
Rat PDGFBB. A working stock of 100 ng/mL is created from the stock solution in 10% FBS culture media.
Step 1: Plating Cells: Media from the A10 cell flask is aspirated. The cells are rinsed with PBS and then trypsinized to disperse the cell layer. The cells are then pelleted are resuspended to 1.25e5 cells/mL. […] Plates are covered and placed in the incubator (37° C. 5% CO2) overnight to allow cells to adhere.
Step 2: Compound Dispense: Approximately 18 hours after plating, dispense 40 nL compound onto cells using Echo. Column 12 is the neutral control DMSO, column 24 is the inhibitor control 10 mM Imatinib (10 uM final assay concentration). The plate is returned to the incubator for 3 hours.
After 10 minutes the media is removed by flicking the plate.
Step 4: Cell lysis and antibody addition: 20 uL lysis buffer per well is added to the plate via Tempest. 5 uL antibody solution is added per well via the Tempest. The plate is placed on the shaker at 230 rpm for 1 hour at room temperature.
Step 5: Detection: The plate is read using the HTRF module on the BMG Pherastar. Data is analyzed using Genedata Screener.
as §3
% Inhibition: % Inhibition=(NC−sample)/(NC−PC)*100 where NC is the mean of negative control (reactions without inhibitor), and PC is the mean of positive control (10 μM imatinib).
IC50 values are determined from a 4-parameter fit, using the following equation: Y=Bottom+(Top−Bottom)/(1+10((Log IC50−X)*Hill slope)), where X=log10 of the compound concentration; top can be defined by PC; bottom defined by NC.

[3] = molecular target: VEGFR2, unphosphorylated (Homo sapiens (Human), UniProt P35968); assay: VEGFR ADP GLO Assay; format: biochemical
Method: as §1
Assay buffer stock contains 50 mM HEPES pH7.5, 10 mM MgCl2, 0.01% Brij-35, and 1 mM EGTA.
Unphosphorylated VEGFR2. […] Store at −80° C. in aliquots.
Sonicate 10 mg/ml Srctide solution for 10 minutes and then vacuum filter.
Freshly Prepared Solutions
2× kinase solution. Make a working solution of 10 nM unphosphorylated VEGFR2 in Assay buffer. Vacuum filter 2× kinase solution prior to running assay. Keep on ice until use.
2× substrate/ATP solution. Make a working solution of 2 mg/mL srctide and 2.4 mM ATP in Assay buffer. Keep on ice until use.
Step 1. Dispensing inhibitors/controls: Using Echo, dispense 10 nL/well compound serial dilutions in DMSO to columns 1-22 (in 384-well plates) or columns 1-44 (in 1536-well plates). Dilution series=11 pt, 3-fold dilutions. The top compound concentration in the source plate is 4 mM. The top compound concentration in the assay plate is 10 uM. Using Echo, dispense 10 nl/well DMSO to column 23 (in 384-well plates) or columns 45-47 (in 1536-well plates). […] These wells will serve as positive control wells.
Step 2. Pre-incubation of inhibitors with kinase: Add 2 μL/well 2× kinase solution. Centrifuge at 1000 rpm for 1 min. Incubate at room temperature for 30 min.
Step 3. Kinase cascade reaction: Add 2 μL/well 2× substrate/ATP solution to initiate kinase reactions. Centrifuge at 1000 rpm for 1 min. Incubate at room temperature for 180 min.
Final concentrations of components in the assay:
Step 4. Quench: Add 2 uL/well ADP Glo Reagent+0.05% CHAPS. Centrifuge at 1000 rpm for 1 min; Incubate at room temperature for one hour.
Step 5. Detection: Add 2 uL/well Kinase Detection Reagent+0.05% CHAPS. Centrifuge at 1000 rpm for 1 min; Incubate at room temperature for 1 hour; Read Luminescence on a plate reader.
as §3
IC50 values are determined from a 4-parameter fit, using the following equation: Y=Bottom+(Top−Bottom)/(1+10^(Log IC50-X)*Hill slope) where X=log10 of the compound concentration; top can be defined by PC; bottom defined by NC.

Sequence of VEGFR2, unphosphorylated (P35968 20-1356): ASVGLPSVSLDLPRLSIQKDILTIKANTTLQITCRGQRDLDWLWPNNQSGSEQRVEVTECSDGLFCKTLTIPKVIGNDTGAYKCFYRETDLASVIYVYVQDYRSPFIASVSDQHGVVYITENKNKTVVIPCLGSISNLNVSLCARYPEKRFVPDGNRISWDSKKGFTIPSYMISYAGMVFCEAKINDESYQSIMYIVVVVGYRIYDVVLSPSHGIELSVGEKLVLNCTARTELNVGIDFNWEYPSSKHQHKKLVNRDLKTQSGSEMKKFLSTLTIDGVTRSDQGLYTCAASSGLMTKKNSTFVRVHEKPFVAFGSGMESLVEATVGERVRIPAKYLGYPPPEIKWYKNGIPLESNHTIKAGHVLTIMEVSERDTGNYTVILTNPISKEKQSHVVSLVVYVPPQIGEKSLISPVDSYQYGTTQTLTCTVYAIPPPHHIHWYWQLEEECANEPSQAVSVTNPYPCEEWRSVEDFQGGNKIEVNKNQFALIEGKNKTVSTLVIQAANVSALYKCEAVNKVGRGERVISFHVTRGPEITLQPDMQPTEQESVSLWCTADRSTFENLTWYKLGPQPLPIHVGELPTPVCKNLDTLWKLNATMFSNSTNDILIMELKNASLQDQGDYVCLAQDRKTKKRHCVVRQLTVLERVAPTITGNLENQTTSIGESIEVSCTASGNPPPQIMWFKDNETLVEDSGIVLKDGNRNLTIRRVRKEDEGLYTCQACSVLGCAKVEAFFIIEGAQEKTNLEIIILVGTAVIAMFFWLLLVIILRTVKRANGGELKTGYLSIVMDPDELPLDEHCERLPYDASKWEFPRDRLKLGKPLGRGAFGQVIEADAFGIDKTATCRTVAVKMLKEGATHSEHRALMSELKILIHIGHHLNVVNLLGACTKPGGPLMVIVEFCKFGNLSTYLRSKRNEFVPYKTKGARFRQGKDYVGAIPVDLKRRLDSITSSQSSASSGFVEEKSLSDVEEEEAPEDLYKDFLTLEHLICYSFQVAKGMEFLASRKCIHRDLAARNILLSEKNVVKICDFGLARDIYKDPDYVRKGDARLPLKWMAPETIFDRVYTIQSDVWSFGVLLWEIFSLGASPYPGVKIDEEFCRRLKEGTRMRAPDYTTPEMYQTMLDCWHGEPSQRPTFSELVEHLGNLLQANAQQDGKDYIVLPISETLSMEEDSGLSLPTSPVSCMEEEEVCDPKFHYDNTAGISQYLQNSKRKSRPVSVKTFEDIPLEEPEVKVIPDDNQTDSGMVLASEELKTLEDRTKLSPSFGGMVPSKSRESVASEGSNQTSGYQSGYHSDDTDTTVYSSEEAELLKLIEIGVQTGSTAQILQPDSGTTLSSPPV
Sequence of His6-TEV-PDGFRβ (557-1016) (P09619 557-1016): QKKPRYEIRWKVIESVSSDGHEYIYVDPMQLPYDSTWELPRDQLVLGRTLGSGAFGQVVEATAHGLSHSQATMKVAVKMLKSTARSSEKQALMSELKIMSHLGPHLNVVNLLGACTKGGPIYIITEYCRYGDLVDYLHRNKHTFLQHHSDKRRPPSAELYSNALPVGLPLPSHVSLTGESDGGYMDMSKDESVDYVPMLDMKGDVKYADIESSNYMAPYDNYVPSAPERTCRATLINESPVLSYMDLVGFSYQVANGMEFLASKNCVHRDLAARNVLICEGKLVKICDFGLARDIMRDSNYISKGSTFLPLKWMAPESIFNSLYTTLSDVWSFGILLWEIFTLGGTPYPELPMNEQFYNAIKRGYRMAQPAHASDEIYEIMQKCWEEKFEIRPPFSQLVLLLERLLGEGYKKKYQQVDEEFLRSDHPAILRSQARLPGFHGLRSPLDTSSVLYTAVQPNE
Sequence of PDGFRβ (Q05030 32-1097): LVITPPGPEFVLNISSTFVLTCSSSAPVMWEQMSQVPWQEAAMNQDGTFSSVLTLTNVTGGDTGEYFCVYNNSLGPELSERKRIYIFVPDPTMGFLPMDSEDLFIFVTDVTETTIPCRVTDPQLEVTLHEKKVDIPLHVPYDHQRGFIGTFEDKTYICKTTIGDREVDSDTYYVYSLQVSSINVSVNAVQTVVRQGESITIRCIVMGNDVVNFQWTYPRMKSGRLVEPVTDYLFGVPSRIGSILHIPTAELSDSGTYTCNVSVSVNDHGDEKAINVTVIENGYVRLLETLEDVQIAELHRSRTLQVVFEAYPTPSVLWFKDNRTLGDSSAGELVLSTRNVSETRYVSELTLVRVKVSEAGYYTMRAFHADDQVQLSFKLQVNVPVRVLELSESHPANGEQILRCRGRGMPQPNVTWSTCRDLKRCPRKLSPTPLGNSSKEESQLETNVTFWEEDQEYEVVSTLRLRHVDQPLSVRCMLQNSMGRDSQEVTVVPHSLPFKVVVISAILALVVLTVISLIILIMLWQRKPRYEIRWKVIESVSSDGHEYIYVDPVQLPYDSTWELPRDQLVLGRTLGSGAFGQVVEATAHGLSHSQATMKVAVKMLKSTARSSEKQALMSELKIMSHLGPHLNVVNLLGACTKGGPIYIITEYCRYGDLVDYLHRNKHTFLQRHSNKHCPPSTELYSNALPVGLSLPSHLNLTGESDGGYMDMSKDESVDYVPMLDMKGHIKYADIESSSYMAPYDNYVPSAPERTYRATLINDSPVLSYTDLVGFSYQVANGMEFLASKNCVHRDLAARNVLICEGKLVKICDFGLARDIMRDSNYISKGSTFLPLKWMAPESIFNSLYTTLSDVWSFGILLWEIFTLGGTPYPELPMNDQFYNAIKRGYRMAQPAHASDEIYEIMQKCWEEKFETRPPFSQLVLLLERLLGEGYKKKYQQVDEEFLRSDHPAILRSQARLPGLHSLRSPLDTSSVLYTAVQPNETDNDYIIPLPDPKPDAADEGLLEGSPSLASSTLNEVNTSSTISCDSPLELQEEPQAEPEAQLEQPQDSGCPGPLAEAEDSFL

| Compound | IC50 [1] [nM] | IC50 [2] [nM] | IC50 [3] [nM] |
| --- | --- | --- | --- |
| Cc1ncc(NC(=O)CN2CC(C)(C)C2)cc1NC(=O)c1cnn2cc(-c3c(C)noc3C)sc12 [Example 364, N-(5-(2-(3,3-dimethylazetidin-1-yl)acetamido)-2-methylpyridin-3-yl)-2-(3,5-dimethylisoxazol-4-yl)pyrazolo[5,1-b]thiazole-7-carboxamide] | 0.8 | 10.3 | > 7500 |
| Cc1cc(C(=O)NCCN2CCCC23CCCC3)sc1NC(=O)c1cnn2cc(-c3cnn(C)c3)sc12 [Example 196, N-(5-((2-(1-azaspiro[4.4]nonan-1-yl)ethyl)carbamoyl)-3-methylthiophen-2-yl)-2-(1-methyl-1H-pyrazol-4-yl)pyrazolo[5,1-b]thiazole-7-carboxamide] | 1.4 | 85.8 | > 7500 |
